Reference: PubChem BioAssay (NCI)
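Cultured in 96-well plates, cells were exposed to test compound for 48 hours across five concentrations. Here, GI50 denotes the concentration required for 50% inhibition of growth. The concentration for full growth arrest is given as TGI.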

How the values were obtained:
Test in all cases: inhibition of tumour cell growth, NCI panel, 48 h
CCRF-CEM leukemia = tested on: CCRF-CEM leukemia
T-47D breast = tested on: T-47D breast
K-562 leukemia = tested on: K-562 leukemia
IGROV1 ovarian = tested on: IGROV1 ovarian
HCT-15 colon = tested on: HCT-15 colon
U251 CNS = tested on: U251 CNS
SF-268 CNS = tested on: SF-268 CNS
HCT-116 colon = tested on: HCT-116 colon
MDA-N = tested on: MDA-N

SMILES	GI50 (CCRF-CEM leukemia) [µM]	TGI (CCRF-CEM leukemia) [µM]	GI50 (T-47D breast) [µM]	TGI (T-47D breast) [µM]	GI50 (K-562 leukemia) [µM]	TGI (K-562 leukemia) [µM]	GI50 (IGROV1 ovarian) [µM]	TGI (IGROV1 ovarian) [µM]	GI50 (HCT-15 colon) [µM]	TGI (HCT-15 colon) [µM]	GI50 (U251 CNS) [µM]	TGI (U251 CNS) [µM]	GI50 (SF-268 CNS) [µM]	TGI (SF-268 CNS) [µM]	TGI (HCT-116 colon) [µM]	GI50 (HCT-116 colon) [µM]	TGI (MDA-N) [µM]
CC1=C(C(=O)Nc2ccc(Cl)c(Cl)c2)C(c2ccccc2O)NC(=O)N1 (configuration not stated)	> 50	> 50	> 50	> 50	26	> 50	> 50	> 50	> 50	> 50	> 50	> 50	46.9	> 50	–	–	–
CCCCCCCCCCCCCCCCOC(=O)c1cc(O)cc(C(=O)OCCCCCCCCCCCCCCCC)c1	–	> 100	–	–	–	> 100	–	> 100	–	> 100	–	> 100	–	> 100	> 100	–	–
OCNCCNc1nc2ccccc2c2[nH]c3ccccc3c12	–	–	–	–	1.55	42.8	1.14	7.31	1.42	6.71	0.506	1.9	1.36	6.44	1.14	0.186	–
O=c1c2ccccc2oc2ccc(OCCCCCCN3CCCCCC3)cc12	3.17	12	2.26	8.52	1.96	4.6	4.29	17.5	2.09	11.1	3.28	11.5	4.35	20	5.16	2.13	–
Oc1[nH]c2cc(Cl)ccc2c1/C=c1/ccc2c(c1)N=C(c1cc(F)cc(F)c1)N=2	0.657	3.47	4.27	17.7	0.821	12.1	3.29	17.9	3.37	14.7	1.06	2.89	2.35	11.7	3.17	1.17	–
CC(=O)Oc1ccc(/C=N/NC(N)=S)nc1	2.58	9.43	5.39	> 100	6	> 100	4.5	26.8	22.5	> 100	4.17	> 100	1.91	8.59	> 100	4.48	–
CC(=O)N(Cc1ccccc1)c1ccccc1I(=O)=O	16.6	35.5	36.1	> 100	14	29.5	15.5	> 100	19.8	40.5	34.5	> 100	16.2	48.9	–	–	–
S=C(NCc1ccccc1)N/N=C/c1ccccn1	–	–	–	> 100	–	> 100	–	> 62.8	–	> 40.5	–	23.9	–	> 91.4	15.4	–	> 100
Nc1ccc2c(c1)c(N)nn2C(=O)Nc1ccc(Cc2ccccc2)cc1	2.07	18.8	5.8	22.8	2.24	11.4	16.4	54.1	2.75	14.2	6.53	20.9	13	30.7	20.8	6.79	–
CO[C@@]12[C@@H]3NC3CN1C1=C(C(=O)C(N)=C(C)C1=O)[C@@H]2COC(N)=O (some centres not stated)	0.296	> 63.5	1.67	54.5	0.965	> 100	1.3	4	0.807	> 100	–	–	–	–	3.26	0.53	–
O=C(NCCCCCCCNC(=O)OCc1ccc2c(Cl)cc(Cl)c(O)c2n1)OCc1ccc2c(Cl)cc(Cl)c(O)c2n1	0.282	1.32	1.33	3.95	0.319	4.41	0.561	1.41	0.221	0.542	1.6	3.09	1.28	2.78	0.63	0.241	–
CCOc1cc(-c2ccc[nH]2)[nH]c1/C=C1\N=C(C)C(C(=O)OC)=C1C	–	1.99	0.0311	0.367	–	–	–	–	0.0148	0.0705	0.0319	0.814	0.0526	1.81	1.08	0.0188	–
Cc1cc([N+](=O)[O-])c(C)c(Br)c1C	–	–	–	> 100	–	> 100	–	> 100	–	> 100	–	> 100	–	> 100	> 100	–	> 100
CC1COCC(C)N1C1=C(Cl)C(=O)c2ccccc2C1=O (configuration not stated)	–	–	–	–	2.81	12	–	–	6.5	23.4	11.6	25.7	7.85	21.1	3.01	1.65	–
CC1OC2OC3C(OCC(O)C3O)OC(=O)[C@]34CCC(C)(C)CC3C3=CCC5[C@@]6(C)C[C@H](O)[C@H](OC7OC(CO)C(O)C(O)C7OC7OCC(OC(=O)CC(C)(O)CC(=O)OC1C(OC1OC(CO)C(O)C(O)C1O)C2O)C(O)C7O)[C@@](C)(CO)C6CC[C@@]5(C)[C@]3(C)CC4 (some centres not stated)	–	28	–	20.3	–	–	–	16.2	–	22.5	–	18.6	–	22.2	16.5	–	7.76
COc1cccc(/C=C/C(=O)c2cc3c(N)c(C(=O)Nc4cccc5ccccc45)sc3nc2C)c1	0.256	> 50	1.22	4.45	0.562	> 50	1.05	2.78	0.624	1.86	0.97	2.06	1.89	> 50	1.6	0.619	–
CC1OC(OC2CCC3(C=O)C4CCC5(C)C(C6=CC(=O)OC6)CCC5(O)C4CCC3(O)C2)C(O)C(O)C1O (configuration not stated)	–	–	–	–	–	0.000263	–	0.0179	–	9.68e-05	–	0.000156	–	4.11e-05	–	–	7.94e-05
Cc1cc(Cl)ccc1Nc1nc(C(F)(F)F)ccc1C(=O)N1CCN(c2cccc(Cl)c2)CC1	> 100	> 100	> 100	> 100	19.7	> 100	1.78	> 100	> 100	> 100	> 100	> 100	> 100	> 100	> 100	37.3	–
